The values below come from PubChem BioAssay AID2253 (Southern Research Specialized Biocontainment Screening …, 2010).

The subject of the test is THP-1 viability, CellTiter-Glo luminescence, 72 h. Description: THP-1 cell cytotoxicity, dose response, cytotoxicity control for Salmonella PhoP regulon inhibitors, S. typhimurium screen hits (AID 2253).
In general, EC50 refers to the midpoint of the concentration-response curve. Take `Cc1ccc(C[n+]2cc(-c3ccc(Cl)cc3)n3c2CCC3)cc1`: the EC50 is 12 µM.

Turning to `CCCCCCCSc1cc(OC)c(CCN(C)C)cc1OC`, the EC50 is 14.1 µM.

Consider `CCCCCCCCn1c2c(c(=N)c3ccccc31)CCC2`, for which the EC50 is 0.98 µM.

In the case of `COc1ccc(Nc2nc(-c3c[nH]c4ccccc34)cs2)cc1`, the EC50 is 15.6 µM.

For `O=C(c1ccc(CSc2nc3ccncc3[nH]2)cc1)N1CCN(c2cccc(Cl)c2)CC1`, the EC50 is 15.3 µM.

For `CCOc1ccc2c(c1)nc(SCC(=O)c1ccc(Br)s1)n2C`, the half-maximal effective concentration (EC50) was 47.3 µM.

Take `Cc1ccc(C)c(-c2nc3ccc(N)cc3[nH]2)c1`: the EC50 was 10.5 µM.

On to `C/C(=N\N=C(N)N)c1ccc(Cl)c(Cl)c1`, for which the EC50 was 11.2 µM.

Regarding `O=C(c1ccc(F)cc1)C(CN1CCOCC1)c1ccccc1` (stereo not drawn), the EC50 was 6.92 µM.

Turning to `COc1ccc(OCCSc2nnc3sc4ccccc4n23)cc1`, the EC50 is 44.1 µM.

Turning to `CCc1ccc(CNc2ccc(O)cc2)cc1`, the EC50 is 17.1 µM.

`Cc1cc(C)c2nc(NNC(=O)c3ccc(S(=O)(=O)N4CCc5ccccc5C4)cc3)sc2c1`: the EC50 was 1.69 µM.

Consider `Oc1ccc(CN2CCc3ccccc3C2)c2cccnc12`, for which the EC50 was 3.39 µM.

On to `Cc1ccc(C=Nc2ccccc2C(N)=O)cc1`, for which the EC50 was 8.83 µM.

As for `CCCCCCCCCC[n+]1cccc2c3ccccc3ccc21`, the concentration for a half-maximal effect (EC50) is 0.6 µM.

For `O=C(Nc1ccc2snnc2c1)Nc1cccc2ccccc12`, the EC50 was 33.7 µM.

For `Oc1cccc2ccc[n+](CC(O)Cn3c4ccccc4c4ccccc43)c12` (stereo not drawn), the concentration for a half-maximal effect (EC50) is 11.1 µM.

For `C/C(CC(=O)Nc1ccc(Cl)c(C(F)(F)F)c1)=N\NC(=O)c1cc2ccccc2cc1O`, the EC50 is 8.06 µM.
